Experimental data taken from US5166166A, “3-dicyclohexylaminosydnone imines, process for their preparation and their use” (Cassella Aktiengesellschaft, priority 1990, dated 1992).

Test system: spiral strips of the pulmonary artery of the guinea-pig
Assay: relaxing action on potassium-depolarised, CaCl2-contracted spiral strips of the pulmonary artery (modified method of Godfraind and Kaba and of Schuman et al.)
Format: cell-based
Settings: for IC50: Cavia porcellus, guinea-pig pulmonary artery strips, 40 mmol/l potassium, contraction by 0.5 mmol/l CaCl2, cumulative addition, average of 4 to 6 vessel strips, read-out: IC50 (concentration of the test substance which inhibits the contraction by 50%); for Duration of action: time needed after addition of the test substance until the starting value is obtained again
Method: The pharmacological action of the compounds of the formula I was determined by a modified method of Godfraind and Kaba (Arch. Int. Pharmacodyn. Ther. 196, (Suppl) 35 to 49, 1972) and of Schuman et al. (Naunyn-Schmiedeberg's Arch. Pharmacol. 289, 409 to 418, 1975). In this connection, spiral strips of the pulmonary artery of the guinea-pig are depolarised with 40 mmol/l of potassium after equilibration in calcium-free Tyrode solution. An addition of 0.5 mmol/l of CaCl2 then induces a contraction. The relaxing action of the test substance is determined by cumulative addition in 1/2 log 10 stepped concentrations. From the concentration-effect curve (abscissa: -log mol/l of test substance, ordinate: % inhibition of the maximum contraction, average value of 4 to 6 vessel strips), the concentration of the test substance is determined which inhibits the contraction by 50% (=IC50, mol/l). The duration of action of the test substance is given by the time which is needed after the addition of the test substance until the starting value is obtained again.

| Structure (SMILES) | IC50 [µM] | Duration of action [min] |
| --- | --- | --- |
| Cl.N=c1c[n+](N2CCOCC2)[n-]o1 [SIN-1, 3Morpholinosydnone imine hydrochloride, reference compound] | 1 | 90 |
| COc1ccc(C(=O)[N-]c2c[n+](N(C3CCCCC3)C3CCCCC3)no2)cc1 [N-p-Anisoyl-3-dicyclohexylaminosydnone imine] | 3 | 300 |
| CCOC(=O)[N-]c1cn(N2CCOCC2)n[o+]1 [Molsidomine, NEthoxycarbonyl-3-morpholinosydnone imine, reference compound] | 300 | 120 |
| Cl.N=c1c[n+](N(C2CCCCC2)C2CCCCC2)[n-]o1 [3-Dicyclohexylaminosydnone imine hydrochloride] | 0.4 | 270 |
| CC(C)(C)C(=O)[N-]c1c[n+](N(C2CCCCC2)C2CCCCC2)no1 [N-Pivaloyl-3-dicyclohexylaminosydnone imine] | 5 | 310 |
